Results on seven compounds are retold here after US20040005299A1, “Method for producing pseudo islets” (Bayer Pharmaceuticals Corporation, priority 2002, published 2004).

Assay [1] relates to pseudo islets (dispersed islet cells). As to the kind of experiment: cells. Type of assay: cell-based, Sprague Dawley rats. Conditions: for EC50: 8 mM glucose, read-out: EC50 on insulin release; for IC50: dose-dependent, read-out: IC50 of inhibition of glucose-stimulated insulin release. The protocol: Pancreata from four Sprague Dawley rats were divided into small pieces approximately 1 mm^2 or smaller in size. The tissue was then rinsed three times with Hanks-Hepes buffer (127 mM NaCl, 5.4 mM KCl, 0.34 mM Na2HPO4, 4.4 mM KH2PO4, 20 mM HEPES, 1.2 mM CaCl2/5 mM glucose), and digested with collagenase (Liberase, 0.25 mg/ml, Roche Diagnostic Corp., Indianapolis, Ind.) at 37° C. in a water bath shaker for 10 minutes.
The digested pancreata tissue was rinsed three times with 50 ml of Hanks-Hepes buffer to remove the collagenase. The tissue pellet was then filtered through a 250 μm filter and the filtrate was mixed with 16 ml of 27% Ficoll (Sigma, St. Louis, Mo.) w/v in Hanks-Hepes buffer. Three layers of Ficoll (23%, 20.5%, and 11%, respectively; 8 ml of each concentration) were then loaded on top of the mixture of islet tissue in 27% Ficoll to form a gradient.
The Ficoll gradient was then centrifuged at 1,600 rpm for 10 minutes at room temperature. The pancreatic islets were concentrated at the interphase between 11% and 20.5%, and between 20.5% and 23% depending on the size of islets. The islets were collected from the two interphases and rinsed twice with Ca^++-free Hanks-Hepes buffer. The islets were then suspended in 5 ml Ca^++-free Hanks-Hepes buffer containing 1 mM EDTA and incubated for 8 minutes at room temperature.
Trypsin and DNAse I were added to the islet suspension for a final concentration of 25 μg/ml and 2 μg/ml, respectively. This suspension was incubated with shaking at 30° C. for 10 minutes. The trypsin digestion was stopped by adding 40 ml RPMI 1640 (GIBCO Life Technologies, Invitrogen, Carlsbad, Calif.) with 10% FBS. The trypsin digested islet cells were then filtered through a 63 μm nylon filter (PGC Scientific, Frederick, Md.) to remove large cell clusters.
The dispersed islet cells were then washed, counted using hemacytometer under the microscope, and seeded into “V-bottom” 96-well plates (2,500 cells per well). However, a range of 1,000 to 10,000 cells per well may used. The dispersed islet cell suspension was then centrifuged at 1,000 rpm for 5 minutes. The Hanks-Hepes buffer was removed and replaced with 200 μl RPMI 1640 medium containing 10% FBS, 1% Penicillin-Streptomycin, and 2 mM L-glutamine. Next, the 96-well plates were centrifuged at 1,000 rpm for 5 minutes to collect the dispersed islet cells concentrated at the V-bottom of the plate forming pseudo islets. These pseudo islets were then cultured overnight in a cell culture incubator at 37° C. with 5% CO2, and then used for assays.
(§1) Pseudo islets were prepared by the method described in Example 1. Following an overnight incubation, the RPMI 1640 medium was removed and replaced by 100 μl Krebs-Ringer-Hepes buffer (115 mM NaCl, 5.0 mM KCl, 24 mM NaHCO3, 2.2 mM CaCl2, 1 mM MgCl2, 20 mM HEPES, 0.25% BSA, 0.002% Phenol Red, pH 7.35-7.40). The cell suspension was then centrifuged for 5 minutes at 1,000 rpm to pellet the dispersed islet cells.
Pseudo islets in 96-well plates were incubated in a water bath at 37° C. continuously gassed with 95% O2/5% CO2 for pre-incubation for 30 minutes. The pre-incubation buffer was removed and replaced with 50 μl incubation buffer (Krebs-Ringer-Hepes buffer, pH 7.35-7.40) containing various test substrates.
The 96-well plate was centrifuged again at 1,000 rpm for 5 minutes to form pseudo islets. These pseudo islets in 96-well plates were statically incubated in a water bath at 37° C. continuously gassed with 95% O2/5% CO2 for 60 minutes. The incubation buffer (25 μl) was collected after the 60-minute incubation and used for an insulin content assay (ELISA assay, ALPCO, N.H.).

Assay [2] concerns pseudo islets co-cultured with fibroblasts. As to the kind of experiment: Insulin release from pseudo islets co-cultured with fibroblasts. The assay is classed as cell-based, Sprague Dawley rats. Conditions: increasing amounts of GLP-1. The method, then: Dispersed islet cells (prepared by the method described in Example 1) were washed with regular RPMI 1640 medium with 10% FBS, counted using hemacytometer under the microscope, and seeded into “V-bottom” 96-well plates with fibroblasts (2,500 islet cells and 1,250 fibroblasts cells per well). The cell suspension was then centrifuged at 1,000 rpm for 5 minutes to collect the dispersed islet cells concentrated at the V-bottom of the plate forming pseudo islets. These pseudo islets were then co-cultured with the fibroblasts cells overnight in a cell culture incubator at 37° C. with 5% CO2, and then used for assays.
as §1
Pseudo islets in 96-well plates were incubated in a water bath at 37° C. continuously gassed with 95% O2/5% CO2 for pre-incubation for 30 minutes. The pre-incubation buffer was removed and replaced with 50 μl incubation buffer (Krebs-Ringer-Hepes buffer, pH 7.35-7.40) containing various test substrates. […]

Read-outs that look alike come from different tables or passages of the source.

In general, EC50 refers to the concentration that produces a half-maximal response. Regarding `CC(=O)OCC[N+](C)(C)C` [Ach, Acetylcholine], the 50% effective concentration (EC50) in assay [1] (Rattus norvegicus) amounted to 10.1 µM.
With `CC[C@H](C)[C@H](NC(=O)[C@H](Cc1ccccc1)NC(=O)[C@H](CCC(=O)O)NC(=O)[C@H](CCCCN)NC(=O)[C@H](C)NC(=O)[C@H](C)NC(=O)[C@H](CCC(N)=O)NC(=O)CNC(=O)[C@H](CCC(=O)O)NC(=O)[C@H](CC(C)C)NC(=O)[C@H](Cc1ccc(O)cc1)NC(=O)[C@H](CO)NC(=O)[C@H](CO)NC(=O)[C@@H](NC(=O)[C@H](CC(=O)O)NC(=O)[C@H](CO)NC(=O)[C@@H](NC(=O)[C@H](Cc1ccccc1)NC(=O)[C@@H](NC(=O)CNC(=O)[C@H](CCC(=O)O)NC(=O)[C@H](C)NC(=O)[C@@H](N)Cc1c[nH]cn1)[C@@H](C)O)[C@@H](C)O)C(C)C)C(=O)N[C@@H](C)C(=O)N[C@@H](Cc1c[nH]c2ccccc12)C(=O)N[C@@H](CC(C)C)C(=O)N[C@H](C(=O)N[C@@H](CCCCN)C(=O)NCC(=O)N[C@@H](CCCNC(=N)N)C(N)=O)C(C)C` [GLP-1], the “GLP-1 mediated insulin secretion on co-culture with fibroblasts” value in assay [2] is “enhanced”.
As for `CC(C)Cn1c(=O)n(C)c(=O)c2[nH]cnc21` [IBMX], the EC50 in assay [1] worked out at 21.9 µM.
A word on the IC50: it is the point on the concentration scale where inhibition reaches its midpoint. Regarding `NC[C@H](O)c1ccc(O)c(O)c1` [NE, norepinephrine], the IC50 in assay [1] (Rattus norvegicus) turned out to be 0.0567 µM.
As for `C=C[C@@]1(C)CC(=O)[C@]2(O)[C@@]3(C)[C@@H](O)CCC(C)(C)[C@@H]3[C@H](O)[C@H](OC(C)=O)[C@@]2(C)O1` [forskolin], the concentration for a half-maximal effect (EC50) in assay [1] (Rattus norvegicus) was 0.9 µM.
On to `COc1ccc(Cl)cc1C(=O)NCCc1ccc(S(=O)(=O)NC(=O)NC2CCCCC2)cc1` [glybenclamide], for which, in assay [1] (Rattus norvegicus), the EC50 was 0.37 µM.
For `C[C@H](N)C(=O)NCC(=O)N[C@H]1CSSC[C@@H](C(=O)O)NC(=O)[C@H](CO)NC(=O)[C@H]([C@@H](C)O)NC(=O)[C@H](Cc2ccccc2)NC(=O)[C@H]([C@@H](C)O)NC(=O)[C@H](CCCCN)NC(=O)[C@H](Cc2c[nH]c3ccccc23)NC(=O)[C@H](Cc2ccccc2)NC(=O)[C@H](Cc2ccccc2)NC(=O)[C@H](CC(N)=O)NC(=O)[C@H](CCCCN)NC1=O` [somatostain], the concentration for half-maximal inhibition (IC50) in assay [1] is 0.0009 µM.
